Data published in patent EP1946778A1, “Active substance combination for the treatment of diabetes” (Laboratorios del Dr. Esteve S.A., priority 2007, dated 2008).

Tests used:
[1] = Plasma glycerol and triacylglycerol assay, female DIO Wistar rats (COMPOUND C); format: in vivo; conditions: 30 mg/kg po once daily for 28 days
Protocol: (§1) The experiment was performed on female Wistar rats (originally in the weight range 250-300g). Animals were maintained on a reverse phase light-dark cycle (lights off for 8 h from 09.30-17.30 h) during which time the room was illuminated by red light. Animals had free access to powdered high fat diet (VRF1 plus 20% lard), ground chocolate, ground peanuts and tap water at all times. The three different diets were contained in separate glass feeding jars with aluminium lids with a 3-4 cm hole cut in it to allow access to the food. Animals were housed in pairs for twelve weeks for the induction of obesity. Animals were then housed singly in polypropylene cages with wire grid floors to enable the food intake of each rat to be recorded. Polypropylene trays with cage pads were placed beneath each cage to detect any food spillage. Animals were accustomed to these new conditions (individual housing and the wire-grid floor cages) for at least 14 days before the start of the baseline readings. […]
Plasma triacylglycerol was determined by modification of a discrete assay kit (Sigma Triglyceride determination kit, Cat No. TR0100) to a 96-well format. […]
A 2.5 mg/ml triolein equivalent glycerol standard was obtained from Sigma. […] Optical density readings were then transferred to GraphPad Prism and unknown values extrapolated from a linear regression fit to the standard curve. […]

[2] = Carcass composition (water, fat, protein, ash), female DIO Wistar rats (COMPOUND C); format: in vivo; conditions: 30 mg/kg po once daily for 28 days
Protocol: (§2) The experiment was performed on female Wistar rats (originally in the weight range 250-300g). Animals were maintained on a reverse phase light-dark cycle (lights off for 8 h from 09.30-17.30 h) during which time the room was illuminated by red light. Animals had free access to powdered high fat diet (VRF1 plus 20% lard), ground chocolate, ground peanuts and tap water at all times. The three different diets were contained in separate glass feeding jars with aluminium lids with a 3-4 cm hole cut in it to allow access to the food. Animals were housed in pairs for twelve weeks for the induction of obesity. Animals were then housed singly in polypropylene cages with wire grid floors to enable the food intake of each rat to be recorded. Polypropylene trays with cage pads were placed beneath each cage to detect any food spillage. Animals were accustomed to these new conditions (individual housing and the wire-grid floor cages) for at least 14 days before the start of the baseline readings.
(§3) Approximately a week before the start of the study, animals were weighed (to the nearest 0.1 g using an electronic top-pan balance) and allocated into 2 weight-matched treatment groups, each containing 10 animals. Following a 7 day baseline run-in period, during which the animals were dosed by the appropriate route (eg orally) once a day with vehicle (1% methylcellulose; 1 ml/kg) or the test drug, ie COMPOUND C (30 mg/kg po) once daily for 28 days.
Total ether-extractable fat in the freeze-dried samples was estimated by the Soxhlet principle using a Foss Soxtec HT2 system. The protocol employed was based on the manufacturer's recommendations for meat samples, although freeze-dried samples obviated the necessity for either a fat hydrolysis step or mixing the sample with sand to ensure efficient extraction.
Samples of approximately 1 g were accurately weighed into 26 mm x 60 mm cellulose extraction thimbles which were then plugged with approximately 0.8 g cotton wool. Sample fat was extracted into pre-weighed (including a few boiling chips) standard metal extraction cups using 70 ml of petroleum ether at 40-60°C, a circulator temperature of 115°C and a cooling flow rate of 2 l/min. A boiling stage of 25 min was employed, followed by a 40 min wash stage. A 10 min drying stage sufficed to remove ether from the extraction cups.
Percentage fat in the freeze-dried sample was calculated as follows: % fat = [100 × (final cup weight-initial cup weight)]/sample weight [formula]
Percentage fat in the original sample was calculated using the % water as follows: % fat in original sample = % fat × [(100-%water)/100] [formula]
Total protein in the freeze-dried samples was estimated using the Kjeldahl principle. A micro-Kjeldahl procedure was performed using a Foss 2012 digestion block and a Foss 2200 distilling unit. The protocol used was based on the manufacturer's recommendations for meat samples.
Approximately 0.3 g of freeze-dried sample was accurately weighed into 100 ml digestion tubes (Foss UK Ltd) in racks of 12 tubes. Each rack included at least one blank tube to determine a reagent blank. To each tube was added two Kjeltabs CQ and one Antifoam S tablet followed by 10 ml of 98% sulphuric acid. Samples were digested at 420°C for 1 h to convert protein into ammonium sulphate. Once tubes had cooled, free ammonia was liberated by the addition of an excess of 40% NaOH and steam distilled into 30 ml of 4% boric acid indicator solution. Ammonia was then determined by titration against volumetric grade 0.1 M HCl using a Brand 25 ml digital burette. Nitrogen and protein content of the samples were calculated as follows: % nitrogen = [(sample titration-blank titration) × 0.1401]/sample weight(g)%protein = % nitrogen × 6.25 [formula]
Total ash in the freeze-dried samples was estimated by determining the non-combustible ash remaining after firing samples at high temperatures using a Carbolite OAF 11/1 muffle furnace. […]

[3] = Plasma leptin assay, female DIO Wistar rats (COMPOUND C); format: in vivo; conditions: 30 mg/kg po once daily for 28 days
Protocol: as §1
Plasma leptin concentration was determined using Assay Designs rat leptin enzyme immunometric assay kits (Cat No. 900-015) according to the manufacturer's regular protocol. […] Optical density at 450 nm was determined using a Molecular Devices VERSAmax tunable microplate reader and readings transferred to GraphPad Prism. […]

[4] = Plasma glycerol and triacylglycerol assay, female DIO Wistar rats (COMPOUND A, COMPOUND B); format: in vivo; conditions: obese female Wistar rats; for reduction of plasma concentrations of triacylglycerol / reduction of plasma glycerol levels: 30 mg/kg po once daily for 28 days, vs vehicle
Protocol: as §2, with “250-300 g). The rats were housed in pairs in polypropylene cages with solid floors and sawdust bedding at a temperature of 21±4°C and 55±20% humidity.” for “250-300g).”, “aluminum” for “aluminium”
as §3, with “into 3” for “into 2”, “containing 9-10” for “containing 10”, “vehicle (0.5% hydroxy-propyl-methylcellulose [HPMC];” for “vehicle (1% methylcellulose;”, “COMPOUND A (10mg and 30 mg/kg po) and COMPOUND B (10 mg and 30” for “COMPOUND C (30”
Terminal blood samples via cardiac puncture were taken from the animals immediately after death into Sarstedt 4.5 ml lithium-heparin tubes (Cat No. 32.331). Tubes were then centrifuged at 1,500 g for 5 minutes at 4°C and the plasma removed and immediately frozen on dry ice (as 3 aliquots per sample in sealed Eppendorf tubes). Plasma samples were stored at -75°C until required for analysis. All determinations were performed on plasma samples that had been thawed only once.
Plasma triacylglycerol was determined by modification of a discrete assay kit (Sigma Triglyceride determination kit, Cat No. TR0100) to a 96-well format. The kit actually determines liberated glycerol following enzymic hydrolysis of triacylglycerol to free fatty acids and glycerol (1 mole glycerol per mole of triacylglycerol). For this reason, correction for the glycerol concentration originally present in the plasma is required. Plasma samples were, therefore, assayed in the absence (free plasma glycerol) or presence (total triacylglycerol) of lipoprotein lipase. Subtraction of free glycerol from total triacylglycerol concentration then derives the true triacylglycerol concentration.
A 2.5 mg/ml triolein equivalent glycerol standard was obtained from Sigma. The supplied Sigma mM conversion factor for this batch was 1.13 (ie 2.83 mM glycerol). A 10 mg/ml glycerol stock solution was prepared in saline and then diluted in saline to create a series of standard concentrations from 0.218 to 4.34 mM. Standards and plasma samples (undiluted) were pipetted into the 96-well plates as 10 µl additions in duplicate. Assay plates and reagents were preheated at 37°C and the reaction started by adding 200 µl of either the glycerol or total triacylglycerol reagent (reconstituted as per manufacturer's protocol) followed by incubation at 37°C for 5 minutes after which optical density at 540 nm was determined using a Molecular Devices VERSAmax tunable microplate reader. Optical density readings were then transferred to GraphPad Prism and unknown values extrapolated from a linear regression fit to the standard curve. The assay was linear up to the highest glycerol standard employed (4.34 mM). Subtraction of the glycerol concentration in the plasma samples from the total triacylglycerol concentration derived the true triacylglycerol concentration.

[5] = Feeding study in female DIO Wistar rats (COMPOUND A, COMPOUND B): body weight and food intake; format: in vivo; conditions: dietary-induced obese female Wistar rats; 10 mg/kg po once daily; end of the 28 day drug treatment period
Protocol: as §2, with “250-300 g). The rats were housed in pairs in polypropylene cages with solid floors and sawdust bedding at a temperature of 21±4°C and 55±20% humidity.” for “250-300g).”, “aluminum” for “aluminium”
Approximately a week before the start of the study, animals were weighed (to the nearest 0.1 g using an electronic top-pan balance) and allocated into 3 weight-matched treatment groups, each containing 9-10 animals. […]
Food intake and body weight were measured once daily. […]

[6] = Plasma NEFA assay, female DIO Wistar rats (COMPOUND A, COMPOUND B); format: in vivo; conditions: obese female Wistar rats; 30 mg/kg po once daily for 28 days
Protocol: as §1, with “250-300 g). The rats were housed in pairs in polypropylene cages with solid floors and sawdust bedding at a temperature of 21±4°C and 55±20% humidity.” for “250-300g).”, “aluminum” for “aluminium”, “Animals were housed in pairs for twelve weeks for the induction of obesity.” left out, “Polypropylene trays with cage pads were placed beneath each cage to detect any food spillage.” left out
Non-esterified (or free) fatty acids (NEFA) were determined by modification of a commercial clinical analyser assay kit (Wako NEFA C ACS-ACOD method) to a 96-well format. […] After exactly 10 minutes, 150 µl of reagent B was added and the plate incubated for a further 10 minutes after which optical density at 540 nm was determined using a Molecular Devices VERSAmax tunable microplate reader. […]

[7] = Plasma leptin assay, female DIO Wistar rats (COMPOUND A, COMPOUND B); format: in vivo; conditions: obese female Wistar rats
Protocol: as §1, with “250-300 g). The rats were housed in pairs in polypropylene cages with solid floors and sawdust bedding at a temperature of 21±4°C and 55±20% humidity.” for “250-300g).”, “aluminum” for “aluminium”, “Polypropylene trays with cage pads were placed beneath each cage to detect any food spillage.” left out
Plasma leptin concentration was determined using Assay Designs rat leptin enzyme immunometric assay kits (Cat No. 900-015) according to the manufacturer's regular protocol. […]
Optical density at 450 nm was determined using a Molecular Devices VERSAmax tunable microplate reader and readings transferred to GraphPad Prism. […]

[8] = olanzapine treatment of patients; literature; cited from earlier work
[9] = 10 mg/kg po once daily for 28 days

For O=C(NN1CCCCC1)C1=NN(c2ccc(Cl)cc2Cl)C(c2ccc(Cl)cc2)C1 (racemic) [COMPOUND C, (rac)-N-piperidinyl-5-(4-chlorophenyl)-1-(2,4-dichlorophenyl)-4,5-dihydro-1H-pyrazole-3-carboxamide], the “reduction of plasma glycerol levels compared to the vehicle-treated control group” value [1] was 23.4%, the “reduction of triacylglycerol levels compared to the vehicle-treated control group” value [1] was 37.2% and the “decrease in absolute body fat compared to the vehicle-treated control group” value [2] was 57.7 g. For the same compound, the “decrease in body fat as share of the total weight-loss observed” value [2] was 79.3%, the “decrease in fat mass compared to the vehicle-treated control group” value [2] was 36.9% and the “reduction of total carcass water compared to the vehicle-treated control” value [2] was 11.8 g. For the same compound, the percentage ash content ([2]; vehicle 2.77%) was 3.26%, the percentage protein content ([2]; vehicle 15.5%) was 17.1% and the “fat content as a percentage of carcass weight” value ([2]; vehicle 31.9%) was 24.2%. For the same compound, the “percentage water content of the carcasses” value ([2]; vehicle 49.0%) was 54.3%, the “mean body fat mass” value ([2]; vehicle 156.3 g) was 98.6 g and the “reduction of final carcass weight” value ([2]; vs vehicle (473.0 g)) was 72.8 g. The “plasma leptin concentrations, change compared to the vehicle-treated control group” value [3] was -48.2%.
For O=C(NN1CCCCC1)C1=NN(c2ccc(Cl)cc2Cl)[C@@H](c2ccc(Cl)cc2)C1 [COMPOUND A, (R)-N-piperidinyl-5-(4-chlorophenyl)-1-(2,4-dichlorophenyl)-4,5-dihydro-1H-pyrazole-3-carboxamide], the “plasma glycerol levels, effect vs vehicle” value [4, 9] was “no significant effect”, the “plasma triacylglycerol concentrations, effect vs vehicle” value [4, 9] was “no significant effect” and the “reduction of plasma concentrations of triacylglycerol” value [4] was 42.0%. The “reduction of plasma glycerol levels” value [4] was 33.6%.
For O=C(NN1CCCCC1)C1=NN(c2ccc(Cl)cc2Cl)[C@H](c2ccc(Cl)cc2)C1 [COMPOUND B, (S)-N-piperidinyl-5-(4-chlorophenyl)-1-(2,4-dichlorophenyl)-4,5-dihydro-1H-pyrazole-3-carboxamide], the “body weights lower than those of the vehicle-treated controls” value [5] was 4.0%, the “decrease of plasma NEFA levels compared to the vehicle-treated control group” value [6] was 24.4% and the “reduction of plasma concentrations of triacylglycerol” value [4] was 52.1%. The “reduction of plasma glycerol levels” value [4] was 38.9%, the “decrease of plasma leptin levels compared to the vehicle-treated control group” value [7, 9] was 13.7% and the “decrease of plasma leptin levels compared to the vehicle-treated control group” value ([7]; 30 mg/kg po once daily for 28 days) was 26.2%.
In the case of Cc1cc2c(s1)Nc1ccccc1N=C2N1CCN(C)CC1 [olanzapine], the “mean increase in body weight” value [8] is given as ~ 5 kg.
